These results are taken from patent US11453683B1, “KRas G12D inhibitors” (Mirati Therapeutics, Inc., priority 2019, dated 2022).

The IC50 is the concentration that inhibits the measured activity by half.

In the test the test system is KRas G12D-mediated phosphorylation of ERK. The test is described as follows: Inhibition of KRas G12D-mediated phosphorylation of ERK in AGS cells. Type of test: cell-based. As to conditions: Homo sapiens; AGS cells expressing G12D, 3 hours, phospho-ERK normalized to GAPDH. In a few lines: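 Fixed, methanol-permeabilized; phospho-ERK (Thr202/Tyr204) by in-cell immunofluorescence normalized to GAPDH. Percent of DMSO control, IC50 by 4-parameter fit.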
Take `Fc1c(-c2ccccc2C(F)(F)F)ncc2c(N3C[C@H]4CC[C@@H](C3)N4)nc(OCC34CCCN3CCC4)nc12` [Example 370, 4-((1R,5S)-3,8-diazabicyclo[3.2.1]octan-3-yl)-8-fluoro-2-((tetrahydro-1H-pyrrolizin-7a(5H)-yl)methoxy)-7-(2-(trifluoromethyl)phenyl)pyrido[4,3-d]pyrimidine]: half-maximal inhibition (IC50) required 10.7 µM.

Take `CCc1cccc2cc(O)cc(-c3ncc4c(N5CC6CCC(C5)N6)nc(OC[C@]56CCCN5[C@@H](COC(=O)N(C)C)CC6)nc4c3F)c12` [Example 434, 7a-(((4-((1R,5S)-3,8-diazabicyclo[3.2.1]octan-3-yl)-7-(8-ethyl-3-hydroxynaphthalen-1-yl)-8-fluoropyrido[4,3-d]pyrimidin-2-yl)oxy)methyl)hexahydro-1H-pyrrolizin-3-yl)methyl dimethyl carbamate]: the IC50 is 0.0067 µM.

`O=C(CCl)N1CCC(Oc2nc(N3C[C@H]4CC[C@@H](C3)N4)c3cnc(-c4cccc5cccc(Cl)c45)c(F)c3n2)CC1` [Example 163, 1-(4-((4-((1R,5S)-3,8-diazabicyclo[3.2.1]octan-3-yl)-7-(8-chloronaphthalen-1-yl)-8-fluoropyrido[4,3-d]pyrimidin-2-yl)oxy)piperidin-1-yl)-2-chloroethan-1-one bis(2,2,2-trifluoroacetate)] had an IC50 of more than 16.7 µM.

Consider `Fc1c(-c2cccc3cccc(F)c23)ncc2c(N3C[C@H]4CC[C@@H](C3)N4)nc(OCC34CCCN3CCC4)nc12` [Example 234, 4-((1R,5S)-3,8-diazabicyclo[3.2.1]octan-3-yl)-8-fluoro-7-(8-fluoronaphthalen-1-yl)-2-((tetrahydro-1H-pyrrolizin-7a(5H)-yl)methoxy)pyrido[4,3-d]pyrimidine], for which half-maximal inhibition (IC50) was put at 0.409 µM.

With `O=S1(=O)CCC(Oc2nc(N3C[C@H]4CC[C@@H](C3)N4)c3cnc(-c4cc(O)cc5ccccc45)c(F)c3n2)CC1` [Example 71, 4-((4-((1R,5S)-3,8-diazabicyclo[3.2.1]octan-3-yl)-8-fluoro-7-(3-hydroxynaphthalen-1-yl)pyrido[4,3-d]pyrimidin-2-yl)oxy)tetrahydro-2H-thiopyran 1,1-dioxide], the IC50 is more than 16.7 µM.

Compound `Oc1cc(-c2ncc3c(N4C[C@H]5CC[C@@H](C4)N5)nc(N4CCCC4)nc3c2F)c2ccccc2c1` [Example 118, 4-(4-((1R,5S)-3,8-diazabicyclo[3.2.1]octan-3-yl)-8-fluoro-2-(pyrrolidin-1-yl)pyrido[4,3-d]pyrimidin-7-yl)naphthalen-2-ol 2,2,2-trifluoroacetate] registered a 50% inhibitory concentration (IC50) of more than 16.7 µM.

`Cc1cccc2cccc(-c3ncc4c(N5C[C@H]6CC[C@@H](C5)N6)nc(OCC56CCCN5CCC6)nc4c3F)c12` [Example 334, 4-((1R,5S)-3,8-diazabicyclo[3.2.1]octan-3-yl)-8-fluoro-7-(8-methylnaphthalen-1-yl)-2-((tetrahydro-1H-pyrrolizin-7a(5H)-yl)methoxy)pyrido[4,3-d]pyrimidine] registered an IC50 of 2.91 µM.

On to `Oc1cc(-c2ncc3c(N4C[C@H]5CC[C@@H](C4)N5)nc(N4CC5(CCOC5)C4)nc3c2F)c2ccccc2c1` [Example 76, 4-(4-((1R,5S)-3,8-diazabicyclo[3.2.1]octan-3-yl)-8-fluoro-2-(6-oxa-2-azaspiro[3.4]octan-2-yl)pyrido[4,3-d]pyrimidin-7-yl)naphthalen-2-ol], for which the midpoint of inhibition, the IC50, lay at 7.41 µM.

Compound `O[C@@H]1C[C@@H]2CN(c3nc(OC[C@@]45CCCN4C[C@H](F)C5)nc4c(F)c(-c5cccc6cccc(Cl)c56)ncc34)C[C@H]1N2` [Example 395, (1R,5R,6R)-3-(7-(8-chloronaphthalen-1-yl)-8-fluoro-2-((2-fluorotetrahydro-1H-pyrrolizin-7a(5H)-yl)methoxy)pyrido[4,3-d]pyrimidin-4-yl)-3,8-diazabicyclo[3.2.1]octan-6-ol] displayed an IC50 of 1.09 µM.

`CN1CCC[C@H]1COc1nc(N2CC3CCC(C=O)(C2)N3)c2cnc(-c3cc(O)cc4ccccc34)c(F)c2n1` (stereo partly drawn) [Example 214, 3-(8-fluoro-7-(3-hydroxynaphthalen-1-yl)-2-(((S)-1-methylpyrrolidin-2-yl)methoxy)pyrido[4,3-d]pyrimidin-4-yl)-3,8-diazabicyclo[3.2.1]octane-1-carbaldehyde] registered an IC50 of more than 16.7 µM.

`COC(=O)NC[C@H]1CC[C@@]2(COc3nc(N4CC5CCC(C4)N5)c4cnc(-c5cccc6cccc(Cl)c56)c(F)c4n3)CCCN12` [Example 411, methyl ((7a-(((4-(3,8-diazabicyclo[3.2.1]octan-3-yl)-7-(8-chloronaphthalen-1-yl)-8-fluoropyrido[4,3-d]pyrimidin-2-yl)oxy)methyl)hexahydro-1H-pyrrolizin-3-yl)methyl)carbamate] returned an IC50 of 0.745 µM.

Compound `N#CC[C@@H]1C[C@@H]2CN(c3nc(OCC45CCCN4CCC5)nc4c(F)c(-c5cc(O)cc6ccccc56)ncc34)C[C@H]1N2` [Example 338, 2-((1R,5S,6S)-3-(8-fluoro-7-(3-hydroxynaphthalen-1-yl)-2-((tetrahydro-1H-pyrrolizin-7a(5H)-yl)methoxy)pyrido[4,3-d]pyrimidin-4-yl)-3,8-diazabicyclo[3.2.1]octan-6-yl)acetonitrile] returned an IC50 of more than 16.7 µM.

The compound `Fc1cccc(-c2ncc3c(N4C[C@H]5CC[C@@H](C4)N5)nc(OCC45CCCN4CCC5)nc3c2F)c1OC(F)F` [Example 302, 4-((1R,5S)-3,8-diazabicyclo[3.2.1]octan-3-yl)-7-(2-(difluoromethoxy)-3-fluorophenyl)-8-fluoro-2-((hexahydro-1H-pyrrolizin-7a-yl)methoxy)pyrido[4,3-d]pyrimidine] came in with an IC50 of 1.99 µM.

`c1ccc2c(-c3cc4nc(OCC56CCCN5CCC6)nc(N5C[C@H]6CC[C@@H](C5)N6)c4cn3)cccc2c1` [Example 233, 4-((1R,5S)-3,8-diazabicyclo[3.2.1]octan-3-yl)-7-(naphthalen-1-yl)-2-((tetrahydro-1H-pyrrolizin-7a(5H)-yl)methoxy)pyrido[4,3-d]pyrimidine] came in with an IC50 of 15.6 µM.

As for `Cc1cc(-c2ncc3c(N4C[C@H]5CC[C@@H](C4)N5)nc(OCC45CCCN4CCC5)nc3c2F)c2c(Cl)cccc2c1` [Example 175, 4-((1R,5S)-3,8-diazabicyclo[3.2.1]octan-3-yl)-7-(8-chloro-3-methylnaphthalen-1-yl)-8-fluoro-2-((hexahydro-1H-pyrrolizin-7a-yl)methoxy)pyrido[4,3-d]pyrimidine], the concentration for half-maximal inhibition (IC50) is more than 5.56 µM.

In turn, `Nc1nccn1CCOc1nc(N2CC3CCC(C2)N3)c2cnc(-c3cccc4cccc(Cl)c34)c(F)c2n1` [Example 178, 1-[2-[7-(8-chloro-1-naphthyl)-4-(3,8-diazabicyclo[3.2.1]octan-3-yl)-8-fluoro-pyrido[4,3-d]pyrimidin-2-yl]oxyethyl]imidazol-2-amine] returned an IC50 of more than 16.7 µM.

In turn, `Cc1cccc(-c2ncc3c(N4C[C@H]5CC[C@@H](C4)N5)nc(OCC45CCCN4CCC5)nc3c2F)c1C(C)C` [Example 301, 4-((1R,5S)-3,8-diazabicyclo[3.2.1]octan-3-yl)-8-fluoro-2-((hexahydro-1H-pyrrolizin-7a-yl)methoxy)-7-(2-isopropyl-3-methylphenyl)pyrido[4,3-d]pyrimidine] yielded an IC50 of 3.17 µM.
